In ChEMBL document CHEMBL2016544, “Low brain penetrant CB1 receptor agonists for the treatment of neuropathic pain” (Bioorg Med Chem Lett, 2012):
Values after ≈ are worked out from the molar mass of the structure shown. Active and inactive are the calls of the source. The rule behind the calls is not given here.

What was measured:
Cannabinoid receptor 1 [1] = biological target: T1, Cannabinoid receptor 1 (Homo sapiens, UniProt P21554); assay: Agonist activity at CB1 receptor; assay type: functional
T1 sequence (P21554 whole entry): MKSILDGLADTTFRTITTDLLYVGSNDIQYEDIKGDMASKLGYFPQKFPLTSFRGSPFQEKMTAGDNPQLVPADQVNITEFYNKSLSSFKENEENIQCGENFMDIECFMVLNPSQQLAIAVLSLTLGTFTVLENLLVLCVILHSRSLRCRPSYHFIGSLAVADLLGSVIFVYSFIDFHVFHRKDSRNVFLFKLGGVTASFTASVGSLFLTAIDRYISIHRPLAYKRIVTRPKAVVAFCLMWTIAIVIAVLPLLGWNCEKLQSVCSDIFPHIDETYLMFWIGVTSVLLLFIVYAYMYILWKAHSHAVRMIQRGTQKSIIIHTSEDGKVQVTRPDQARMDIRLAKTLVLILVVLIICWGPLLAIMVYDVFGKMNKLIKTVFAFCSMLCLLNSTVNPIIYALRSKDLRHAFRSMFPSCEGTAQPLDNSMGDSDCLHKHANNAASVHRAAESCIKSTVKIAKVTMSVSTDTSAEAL

[2] = Intrinsic clearance in rat liver microsomes; assay type: ADME, Microsome; details: read-out: CLH
[3] = Intrinsic clearance in human liver microsomes; assay type: ADME, Microsome; details: read-out: CLH
[4] = Solubility of the compound at pH 7.4; assay type: physicochemical; details: buffer
[5] = Oral bioavailability in rat; assay type: ADME, organism-based; details: in vivo
Cannabinoid receptor 1 [6] = biological target: T1, Cannabinoid receptor 1; assay: Displacement of [3H]CP 55,940 from human CB1 receptor expressed in insect sf9 membranes; assay type: cell membranes
Cannabinoid receptor 2 = Cannabinoid receptor 2 (Homo sapiens, UniProt P34972); assay: Displacement of [3H]CP 55,940 from human CB2 receptor expressed in insect sf9 membranes; assay type: cell membranes
Chain of Cannabinoid receptor 2 (P34972 whole entry): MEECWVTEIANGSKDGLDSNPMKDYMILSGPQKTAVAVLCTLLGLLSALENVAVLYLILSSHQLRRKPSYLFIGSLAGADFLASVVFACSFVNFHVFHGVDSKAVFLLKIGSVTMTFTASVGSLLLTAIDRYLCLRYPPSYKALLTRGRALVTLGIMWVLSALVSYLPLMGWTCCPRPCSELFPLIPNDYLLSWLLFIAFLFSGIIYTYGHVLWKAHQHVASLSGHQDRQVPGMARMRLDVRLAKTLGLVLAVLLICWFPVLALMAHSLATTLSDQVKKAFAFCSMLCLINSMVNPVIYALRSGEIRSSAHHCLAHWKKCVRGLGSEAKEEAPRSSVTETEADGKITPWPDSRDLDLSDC

[7] = Ratio of drug level in brain to plasma in mouse; assay type: ADME, organism-based; details: read-out: BPR
[8] = Cmax in mouse plasma at 3 umol/kg, iv; assay type: ADME, organism-based; design: dose 3 umol/kg, route intravenous
[9] = Cmax in Wistar BRL rat plasma at 24 mg/kg, po by LC-MS/MS analysis; assay type: ADME, organism-based; design: dose 24 mg/kg, route oral
[10] = Clearance in rat at 2 mg/kg, iv; assay type: ADME, organism-based; design: dose 2 mg/kg, route intravenous; details: in vivo
[11] = Intrinsic clearance in mouse liver microsomes; assay type: ADME, Microsome; details: read-out: CLH
Rattus norvegicus [12] = assay: Analgesic activity in po dosed rat Chung von Frey model of neuropathic pain assessed as anti-allodynic effect against mechanical stimulus; assay type: functional
[13] = Ratio of Cmax in brain to plasma of Wistar BRL rat at 24 mg/kg, po by LC-MS/MS analysis; assay type: ADME, organism-based; design: dose 24 mg/kg, route oral
[14] = Intrinsic clearance in dog liver microsomes; assay type: ADME, Canis lupus familiaris, Microsome; details: read-out: CLH
Rattus norvegicus [15] = assay: Analgesic activity in po dosed rat Chung Hargreaves model of neuropathic pain assessed as inhibition of thermal hyperalgesia; assay type: functional
[16] = Cmax in Wistar BRL rat brain at 24 mg/kg, po by LC-MS/MS analysis; assay type: ADME, organism-based; design: dose 24 mg/kg, route oral
[17] = Ratio of Cmax in CSF to free plasma of Wistar BRL rat at 24 mg/kg, po by LC-MS/MS analysis; assay type: ADME, organism-based; design: dose 24 mg/kg, route oral; details: in vivo
[18] = Ratio of AUC in brain to plasma of Wistar BRL rat at 24 mg/kg, po by LC-MS/MS analysis; assay type: ADME, organism-based; design: dose 24 mg/kg, route oral; details: read-out: Ratio AUC
[19] = Ratio of AUC in mouse brain to AUC in mouse plasma at 3 umol/kg, iv; assay type: ADME; details: read-out: Ratio AUC
Rattus norvegicus [20] = assay: Ratio of MED for toxicity in […] to ED50 for anti-allodynic activity in po dosed rat Chung von Frey model of neuropathic pain; assay type: functional
[21] = Ratio of AUC in CSF to free plasma of Wistar BRL rat at 24 mg/kg, po by LC-MS/MS analysis; assay type: ADME, organism-based; design: dose 24 mg/kg, route oral; details: in vivo
[22] = Half life in rat at 2 mg/kg, iv; assay type: ADME, organism-based; design: dose 2 mg/kg, route intravenous; details: in vivo
[23] = Cmax in Wistar BRL rat CSF at 24 mg/kg, po by LC-MS/MS analysis; assay type: ADME, organism-based, Cerebrospinal fluid; design: dose 24 mg/kg, route oral
[24] = Plasma protein binding in mouse; assay type: ADME, cell-free; details: read-out: PPB (converted)
[25] = Ratio of Cmax in mouse brain to Cmax in mouse plasma at 3 umol/kg, iv; assay type: ADME
[26] = Efflux ratio of apparent permeability from basolateral to apical side over apical to basolateral side in human Caco2 cells; assay type: ADME, cell-based; details: Caco-2
[27] = Oral bioavailability in rat at 10 mg/kg; assay type: ADME, organism-based; details: in vivo
[28] = Plasma protein binding in rat; assay type: ADME, cell-free; details: read-out: PPB (converted)
[29] = Apparent permeability across human Caco2 cells; assay type: ADME, cell-based; details: Caco-2
[30] = Plasma protein binding in dog; assay type: ADME, cell-free, Canis lupus familiaris; details: read-out: PPB (converted)
[31] = Intrinsic clearance in rabbit liver microsomes; assay type: ADME, Oryctolagus cuniculus, Microsome; details: read-out: CLH
[32] = Cmax in mouse brain at 3 umol/kg, iv; assay type: ADME, organism-based; design: dose 3 umol/kg, route intravenous
[33] = biological target: Voltage-gated inwardly rectifying potassium channel KCNH2 (Homo sapiens, UniProt Q12809); assay: Displacement of [3H]dofetilide from human ERG
Chain of Voltage-gated inwardly rectifying potassium channel KCNH2 (Q12809 whole entry): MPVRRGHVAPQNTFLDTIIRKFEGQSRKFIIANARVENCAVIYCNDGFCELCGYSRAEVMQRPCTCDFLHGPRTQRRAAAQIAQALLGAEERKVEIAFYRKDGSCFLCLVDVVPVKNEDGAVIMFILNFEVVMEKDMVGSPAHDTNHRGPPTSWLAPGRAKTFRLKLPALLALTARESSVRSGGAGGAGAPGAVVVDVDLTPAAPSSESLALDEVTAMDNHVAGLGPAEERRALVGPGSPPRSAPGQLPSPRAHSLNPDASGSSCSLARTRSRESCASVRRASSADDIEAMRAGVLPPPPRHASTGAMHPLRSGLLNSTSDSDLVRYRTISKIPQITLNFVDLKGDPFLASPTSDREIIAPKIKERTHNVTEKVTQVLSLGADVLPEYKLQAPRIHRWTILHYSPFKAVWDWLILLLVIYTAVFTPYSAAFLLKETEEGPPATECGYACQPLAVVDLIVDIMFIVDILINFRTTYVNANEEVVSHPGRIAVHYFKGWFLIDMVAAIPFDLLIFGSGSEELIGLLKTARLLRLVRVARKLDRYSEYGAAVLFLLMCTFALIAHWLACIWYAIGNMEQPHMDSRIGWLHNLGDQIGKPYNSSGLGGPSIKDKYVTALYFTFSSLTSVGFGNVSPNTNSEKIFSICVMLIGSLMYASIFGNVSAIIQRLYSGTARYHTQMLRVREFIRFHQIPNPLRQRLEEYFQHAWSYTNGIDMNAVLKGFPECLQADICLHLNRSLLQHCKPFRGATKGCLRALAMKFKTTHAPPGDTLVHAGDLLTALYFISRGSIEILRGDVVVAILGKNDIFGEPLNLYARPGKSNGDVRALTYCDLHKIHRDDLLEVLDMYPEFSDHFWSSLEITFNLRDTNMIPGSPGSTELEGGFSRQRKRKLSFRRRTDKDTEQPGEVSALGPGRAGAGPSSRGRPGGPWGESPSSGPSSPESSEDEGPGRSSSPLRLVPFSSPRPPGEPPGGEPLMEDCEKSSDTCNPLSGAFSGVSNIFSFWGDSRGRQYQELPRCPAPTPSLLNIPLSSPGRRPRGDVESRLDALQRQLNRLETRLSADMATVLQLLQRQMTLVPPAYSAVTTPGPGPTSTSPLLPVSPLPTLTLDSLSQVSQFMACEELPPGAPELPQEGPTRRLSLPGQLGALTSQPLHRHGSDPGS

[34] = Intrinsic clearance in rat hepatocytes assessed per million cells; assay type: ADME, cell-based, Hepatocyte; details: read-out: CLH
[35] = Volume of distribution at steady state in rat at 2 mg/kg, iv; assay type: ADME, organism-based; design: dose 2 mg/kg, route intravenous; details: in vivo, read-out: Vdss
[36] = Plasma protein binding in human; assay type: ADME, cell-free; details: read-out: PPB (converted)
[37] = Plasma protein binding in rabbit; assay type: ADME, cell-free, Oryctolagus cuniculus; details: read-out: PPB (converted)
Rattus norvegicus [38] = assay: Analgesic activity in po dosed rat Chung von Frey model of neuropathic pain assessed as anti-allodynic effect against mechanical stimulus in presence of CB1 receptor antagonist rimonabant; assay type: functional, organism-based
[39] = Intrinsic clearance in human hepatocytes assessed per million cells; assay type: ADME, cell-based, Hepatocyte; details: read-out: CLH
Rattus norvegicus [40] = assay: Toxicity in po dosed rat assessed as catalepsy by ring immobility test; assay type: organism-based; details: in vivo
Rattus norvegicus [41] = assay: Ratio of MED for toxicity in sc dosed rat assessed as catalepsy to ED50 for anti-allodynic activity in sc dosed rat Chung von Frey model of neuropathic pain; assay type: functional
Rattus norvegicus [42] = assay: Analgesic activity in sc dosed rat Chung von Frey model of neuropathic pain assessed as anti-allodynic effect against mechanical stimulus; assay type: functional
Rattus norvegicus [43] = assay: Toxicity in sc dosed rat assessed as catalepsy by ring immobility test; assay type: organism-based; details: in vivo

CN(CC(N)=O)Cc1nc(-c2cn(CC3CCS(=O)(=O)CC3)c3c(Cl)cccc23)no1
EC50 (Cannabinoid receptor 1 [1]): 158 nM
microsomal CLint [2]: 33 µL/min/mg
microsomal CLint [3]: 26 µL/min/mg

NC(=O)CN1CCN(Cc2nc(-c3cn(CC4CCS(=O)(=O)CC4)c4c(Cl)cccc34)no2)CC1
EC50 (Cannabinoid receptor 1 [1]): 501 nM
microsomal CLint [2]: 48 µL/min/mg
microsomal CLint [3]: < 12 µL/min/mg

COc1cccc2c(-c3noc(CN4CCC(C(=O)NCCO)CC4)n3)cn(CC3CCOCC3)c12
EC50 (Cannabinoid receptor 1 [1]): 631 nM

O=C(NCCO)[C@H]1CCCN(Cc2nc(-c3cn(CC4CCS(=O)(=O)CC4)c4c(Cl)cccc34)ns2)C1
EC50 (Cannabinoid receptor 1 [1]): 20 nM
microsomal CLint [2]: 32 µL/min/mg
solubility [4]: 45 µg/mL (≈ 79.5 µM)
microsomal CLint [3]: 47 µL/min/mg
bioavailability [5]: 1%
Ki (Cannabinoid receptor 1 [6]): 31.6 nM
Ki (Cannabinoid receptor 2): 20 nM
Kp [7]: 0.03

COc1cccc2c(-c3nsc(CN(C)CC(N)=O)n3)cn(CC3CCOCC3)c12
EC50 (Cannabinoid receptor 1 [1]): 1260 nM

O=C(NCCO)C1CCN(Cc2nc(-c3cn(CC4CCOCC4)c4c(Cl)cccc34)ns2)CC1
EC50 (Cannabinoid receptor 1 [1]): 79.4 nM
microsomal CLint [2]: 49 µL/min/mg
microsomal CLint [3]: 18 µL/min/mg

NC(=O)CN1CCN(Cc2nc(-c3cn(CC4CCOCC4)c4c(Cl)cccc34)no2)CC1
Cmax [8]: 814 ng/mL
Cmax [9]: 722 ng/mL
clearance [10]: 9.5 mL/min/kg
microsomal CLint [11]: < 12 µL/min/mg
microsomal CLint [2]: < 12 µL/min/mg
ED50 (Rattus norvegicus [12]): 17 µmol/kg
Kp [13]: 0.2
solubility [4]: 89 µg/mL (≈ 188 µM)
microsomal CLint [14]: 13 µL/min/mg
ED50 (Rattus norvegicus [15]): 2.5 µmol/kg
Cmax [16]: 148 ng/g
Ratio [17]: 0.23
Kp [18]: 0.22
Kp [19]: 0.16
Ratio (Rattus norvegicus [20]): >9.3
Ratio AUC [21]: 0.21
microsomal CLint [3]: 12 µL/min/mg
half-life [22]: 3.8 h
bioavailability [5]: 45%
Cmax [23]: 6.4 ng/mL
fraction unbound [24]: 0.034
Kp [25]: 0.16
efflux ratio [26]: 1.5
bioavailability [27]: 45%
fraction unbound [28]: 0.039
Papp [29]: 6.2 ×10⁻⁶ cm/s
fraction unbound [30]: 0.063
microsomal CLint [31]: < 12 µL/min/mg
Cmax [32]: 134 ng/g
Ki [33]: 20000 nM
hepatocyte CLint [34]: 7 µL/min/1e6 cells
Vd [35]: 2.6 L/kg
fraction unbound [36]: 0.04
fraction unbound [37]: 0.037
Activity (Rattus norvegicus [38]): inactive
hepatocyte CLint [39]: 3 µL/min/1e6 cells
MED (Rattus norvegicus [40]): > 160 µmol/kg
Ki (Cannabinoid receptor 1 [6]): 20 nM
Ki (Cannabinoid receptor 2): 50.1 nM
Kp [7]: 0.16

NC(=O)CN1CCN(Cc2nc(-c3cn(CC4CCOCC4)c4c(Cl)cccc34)ns2)CC1
EC50 (Cannabinoid receptor 1 [1]): 63.1 nM
microsomal CLint [2]: 23 µL/min/mg
microsomal CLint [3]: 23 µL/min/mg

COc1cccc2c(-c3nsc(CN4CCN(CC(N)=O)CC4)n3)cn(CC3CCOCC3)c12
EC50 (Cannabinoid receptor 1 [1]): 79.4 nM
microsomal CLint [2]: 17 µL/min/mg
solubility [4]: 5 µg/mL (≈ 10.3 µM)
microsomal CLint [3]: 17 µL/min/mg
bioavailability [5]: 40%
Ki (Cannabinoid receptor 1 [6]): 6.31 nM
Ki (Cannabinoid receptor 2): 15.8 nM
Kp [7]: 0.18

COc1cccc2c(-c3noc(CN(C)CC(N)=O)n3)cn(CC3CCOCC3)c12
EC50 (Cannabinoid receptor 1 [1]): 2510 nM

O=C(NCCO)C1CCN(Cc2nc(-c3cn(CC4CCOCC4)c4c(Cl)cccc34)no2)CC1
microsomal CLint [2]: 18 µL/min/mg
microsomal CLint [3]: 16 µL/min/mg
bioavailability [5]: 8%
Ki (Cannabinoid receptor 1 [6]): 3.98 nM
Ki (Cannabinoid receptor 2): 20 nM
Kp [7]: 0.03

NC(=O)CN1CCN(Cc2nc(-c3cn(CC4CCS(=O)(=O)CC4)c4c(Cl)cccc34)ns2)CC1
pEC50 (Cannabinoid receptor 1 [1]): 6.7
microsomal CLint [2]: < 12 µL/min/mg
microsomal CLint [3]: < 12 µL/min/mg

COc1cccc2c(-c3nsc(CN4CCC(C(=O)NCCO)CC4)n3)cn(CC3CCOCC3)c12
EC50 (Cannabinoid receptor 1 [1]): 31.6 nM
microsomal CLint [2]: 33 µL/min/mg
microsomal CLint [3]: 19 µL/min/mg

O=C(NCCO)C1CCN(Cc2nc(-c3cn(CC4CCS(=O)(=O)CC4)c4c(Cl)cccc34)no2)CC1
EC50 (Cannabinoid receptor 1 [1]): 1000 nM
microsomal CLint [2]: < 12 µL/min/mg
microsomal CLint [3]: < 12 µL/min/mg

CN(CC(N)=O)Cc1nc(-c2cn(CC3CCOCC3)c3c(Cl)cccc23)ns1
EC50 (Cannabinoid receptor 1 [1]): 631 nM

CN(CC(N)=O)Cc1nc(-c2cn(CC3CCOCC3)c3c(Cl)cccc23)no1.Cl
microsomal CLint [2]: 43 µL/min/mg
microsomal CLint [3]: 36 µL/min/mg
Kp [7]: 0.9

CN(CC(=O)NCCO)Cc1nc(-c2cn(CC3CCOCC3)c3c(Cl)cccc23)no1
microsomal CLint [2]: 49 µL/min/mg
microsomal CLint [3]: 66 µL/min/mg

Cc1c(C(=O)c2cccc3ccccc23)c2cccc3c2n1[C@H](CN1CCOCC1)CO3 [WIN-552122]
Ratio (Rattus norvegicus [41]): 3.7
ED50 (Rattus norvegicus [42]): 1.6 µmol/kg
bioavailability [5]: 0%
MED (Rattus norvegicus [43]): 5.7 µmol/kg
Kp [7]: 1.3

CN(CC(N)=O)Cc1nc(-c2cn(CC3CCS(=O)(=O)CC3)c3c(Cl)cccc23)ns1
EC50 (Cannabinoid receptor 1 [1]): 158 nM
microsomal CLint [2]: 52 µL/min/mg
microsomal CLint [3]: 25 µL/min/mg
